Data from PubChem BioAssay AID2060504 (Molecular Pharmacology Branch, DTP, NCI, 2025).

System: 636577-100-R-J1-PDC complex spheroid viability
Experiment: Anticancer human tumor 636577-100-R-J1-PDC patient-derived endometrial adenocarcinoma cell line growth inhibition [GQUAD]
Conditions: for IC50: curve of first compound; for viability, T/C: stronger effect = lower value
Summary of the method: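 Viability of tumor cells grown as complex spheroids with endothelial and stromal cells, exposed to drug combinations. Top concentration at or near clinical Cmax (else 10 microM), diluted in half-log increments.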
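Also: viability read after seven days of drug exposure.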
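For viability, T/C in this document: luminescence signal used as a proxy for viable cells; 100% = DMSO vehicle control wells.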

COc1ncnc(C2CC2)c1-c1ncc2cnn(Cc3ccc(-c4nc(C(F)(F)F)cn4C(C)C)cc3)c2n1 + Cc1[nH]c2ccc(F)cc2c1-c1nc2c3cccnc3c3ncccc3c2[nH]1
IC50 (second compound 0.0316 µM): > 10 µM
IC50 (second compound 0.1 µM): > 10 µM
IC50 (second compound 0.316 µM): > 10 µM
IC50 (second compound 1 µM): > 10 µM
IC50 (second compound 3.16 µM): < 0.0316 µM
IC50 (second compound 10 µM): < 0.0316 µM
viability, T/C (second compound 0.0316 µM, first compound 0.0316 µM): 86.6%
viability, T/C (second compound 0.0316 µM, first compound 0.1 µM): 67.6%
viability, T/C (second compound 0.0316 µM, first compound 0.316 µM): 77.3%
viability, T/C (second compound 0.0316 µM, first compound 1 µM): 57.8%
viability, T/C (second compound 0.0316 µM, first compound 3.16 µM): 66.7%
viability, T/C (second compound 0.0316 µM, first compound 10 µM): 75.3%
viability, T/C (second compound 0.1 µM, first compound 0.0316 µM): 74.8%
viability, T/C (second compound 0.1 µM, first compound 0.1 µM): 57.1%
viability, T/C (second compound 0.1 µM, first compound 0.316 µM): 87%
viability, T/C (second compound 0.1 µM, first compound 1 µM): 54.6%
viability, T/C (second compound 0.1 µM, first compound 3.16 µM): 79.9%
viability, T/C (second compound 0.1 µM, first compound 10 µM): 67.6%
viability, T/C (second compound 0.316 µM, first compound 0.0316 µM): 63.8%
viability, T/C (second compound 0.316 µM, first compound 0.1 µM): 60.6%
viability, T/C (second compound 0.316 µM, first compound 0.316 µM): 62.8%
viability, T/C (second compound 0.316 µM, first compound 1 µM): 64.5%
viability, T/C (second compound 0.316 µM, first compound 3.16 µM): 77.3%
viability, T/C (second compound 0.316 µM, first compound 10 µM): 66.6%
viability, T/C (second compound 1 µM, first compound 0.0316 µM): 57.8%
viability, T/C (second compound 1 µM, first compound 0.1 µM): 59%
viability, T/C (second compound 1 µM, first compound 0.316 µM): 60.1%
viability, T/C (second compound 1 µM, first compound 1 µM): 50.2%
viability, T/C (second compound 1 µM, first compound 3.16 µM): 50.1%
viability, T/C (second compound 1 µM, first compound 10 µM): 57.4%
viability, T/C (second compound 3.16 µM, first compound 0.0316 µM): 20.8%
viability, T/C (second compound 3.16 µM, first compound 0.1 µM): 27.6%
viability, T/C (second compound 3.16 µM, first compound 0.316 µM): 22.6%
viability, T/C (second compound 3.16 µM, first compound 1 µM): 28.4%
viability, T/C (second compound 3.16 µM, first compound 3.16 µM): 27.5%
viability, T/C (second compound 3.16 µM, first compound 10 µM): 26.1%
viability, T/C (second compound 10 µM, first compound 0.0316 µM): 28.9%
viability, T/C (second compound 10 µM, first compound 0.1 µM): 29.5%
viability, T/C (second compound 10 µM, first compound 0.316 µM): 26.4%
viability, T/C (second compound 10 µM, first compound 1 µM): 27.1%
viability, T/C (second compound 10 µM, first compound 3.16 µM): 32.1%
viability, T/C (second compound 10 µM, first compound 10 µM): 32.6%
